From patent US20100035311A1, “METHOD AND COMPOSITION FOR ENZYME STORAGE” (priority 2006, published 2010)
Values joined by “and” are separate entries in the source; they are usually repeats but may differ in a detail not shown here. Equal values may be shown once. Read-outs that look alike come from different tables or passages of the source.

How the values were obtained:
[1] = system: Medicago truncatula hydroperoxide lyase CYP74C3 (HPLF), recombinant, wild type, N-terminal histidine-tagged; settings: for Km / kcat: pH 6.5, 25° C.; for Km / affinity, fold change on detergent removal (Km higher) / kcat, fold difference (detergent-buffer higher than detergent-free): detergent-buffer vs detergent-free; for catalytic efficiency (kcat/Km) of detergent-free enzyme as % of enzyme purified without detergent removal: detergent-free vs detergent-buffer; for kcat as % of kcat with 13α-HPOT: purified in detergent-buffer
[2] = system: CYP74C3; settings: cited from earlier work
[3] = molecular target: T1, CYP74A1 (Arabidopsis thaliana, UniProt Q96242)
T1 sequence (Q96242 with tags, fused parts or gaps): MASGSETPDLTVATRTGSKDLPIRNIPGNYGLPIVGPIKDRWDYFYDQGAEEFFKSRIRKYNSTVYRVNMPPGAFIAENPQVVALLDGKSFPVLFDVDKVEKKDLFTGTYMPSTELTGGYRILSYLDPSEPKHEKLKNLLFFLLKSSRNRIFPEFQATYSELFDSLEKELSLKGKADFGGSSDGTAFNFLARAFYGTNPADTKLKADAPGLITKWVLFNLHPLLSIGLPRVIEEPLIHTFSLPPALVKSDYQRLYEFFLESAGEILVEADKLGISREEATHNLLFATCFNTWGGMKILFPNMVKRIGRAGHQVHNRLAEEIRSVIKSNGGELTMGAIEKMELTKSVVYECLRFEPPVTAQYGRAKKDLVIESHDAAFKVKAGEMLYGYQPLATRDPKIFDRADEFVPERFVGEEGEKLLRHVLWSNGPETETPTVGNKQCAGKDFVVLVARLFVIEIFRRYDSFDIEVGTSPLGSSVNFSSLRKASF

[4] = system: CYP74C3
Method: (a) UV/Visible spectra of ligand-bound forms of oxidised native CYP74C3 (2 μM, ? ); KCN (100 mM, ——); imidazole (50 mM, ---------); DMPhP (250 mM, —[…] […]—). The spectrum of dithionite (50 mM) reduced CYP74C3 (2 μM) before ([…]) and after (—[…]—) reaction with CO (˜1 mM) are also shown. […] (c) Stopped-flow diode array spectral changes over a period of 200 s for cyanide (100 mM) binding to native oxidised CYP74C3 (2 μM).
Spectra and steady-state kinetic analyses were performed using a dual beam scanning Shimadzu UV/Visible spectrophotometer (Model UV-1601, Shimadzu, Milton Keynes, U.K.). […] Stopped flow-UV/Visible data were analysed with the KineticAsyst 3.0 software package (Hi-Tech Scientific). Ligand-binding studies were carried out with both the native oxidised and the dithionite ion reduced forms of CYP74C3.

[5] = system: AOS; settings: ref [23′]; cited from earlier work
[6] = system: CYP74C3; assay type: biochemical, Medicago truncatula
Method: Protein content was estimated using the Bradford or bicinchoninic acid (BCA) assay (Pierce, Perbio Science, Cramlington, Northumberland, U.K.) according to the manufacturer's instructions. Bovine serum albumin was used as a standard. […] Substrate specificity was determined by comparing kcat/Km.

[7] = system: CYP74C3; remark: listed apart in the source
Method: (a) Dose response curve for reactivation of detergent-free CYP74C3 with the detergent Emulphogene. Detergent-free CYP74C3 was incubated with an equal volume of 100 mM sodium phosphate buffer, pH 6.5 or containing detergent (0.01-10.24 mM Emulphogene) for 15 min on ice. Samples (1.2 pmol) were then assayed for HPL activity in the standard assay with 20 μM 13α-HPOT; (b) Plot of predicted micelle concentration versus activity for calculation of Kd for Emulphogene binding and (c) Fit of velocity-substrate curves to one-site saturation model in SigmaPlot for detergent-free CYP74C3 (1.0 pmol, ∘---∘), CYP74C3 purified in detergent-buffer (0.5 pmol, ∘—∘) and detergent-free CYP74C3 after reactivation with 5 mM Emulphogene (0.5 pmol, ▾—▾). […] Error bars are the means±standard errors of at least six determinations on two different enzyme preparations.
Substrate specificity was determined by comparing kcat/Km.

[8] = molecular target: T1, CYP74A1; settings: pH 6.5
[9] = assay type: physicochemical
Description: The following table provides a summary enzyme stability studies conducted on HPL and AOS enzymes, subjected to either freeze drying or speedvac drying, in the presence or absence of detergent. What is reported here is the degree to which enzyme activity is lost based on the storage condition. […] Subsequent re-hydration of each dried enzyme and spectroscopic analysis was used to determine the stability of the thus-treated enzymes. FIG. 11 provides stability over time information for the thus stored enzymes showing stability for at least ten weeks. UV/Vis spectra of detergent-free preparations of CYP74C3 (HPLF), CYP74A1 (AOS) and Pepper HPL were determined before and after freeze drying, as well as before and after drying in a speedvac. […] The UV/Vis spectra of preparations of CYP74C3 (HPLF), CYP74A1 (AOS) and Pepper HPL in the detergent triton before and after freeze drying were further determined. The UV/Vis spectra of these preparations were used to determine the percentage loss of protein resulting from freeze drying, or drying in a speedvac and the results are summarised in the following table.

[10] = +Detergent (purified in detergent-buffer)
[11] = Reactivated with 5 mM Emulphogene
[12] = monomer-micelle complex vs detergent-free monomer

## CCCCC/C=C\C=C\[C@H](CCCCCCCC(=O)O)OO [9α-HPOD]
[1]; [10]
  Substrate specificity (% 13α-HPOT), from kcat/Km: 8%
  kcat/Km: 1.29e+07 M⁻¹ s⁻¹
  Km: 15.3 ± 1.4 µM
  kcat: 197 ± 6 s⁻¹
[1]; Detergent-free
  Substrate specificity (% 13α-HPOT), from kcat/Km: 16%
  kcat/Km: 500000 M⁻¹ s⁻¹
  Km: 84.5 ± 10.1 µM
  kcat: 44 ± 2 s⁻¹
[1]; [11]
  Substrate specificity (% 13α-HPOT), from kcat/Km: 5%
  kcat/Km: 7.2e+06 M⁻¹ s⁻¹
  Km: 25.8 ± 2.2 µM
  kcat: 185 ± 7 s⁻¹
[1]
  Km / affinity, fold change on detergent removal (Km higher): 6 fold
  kcat, fold difference (detergent-buffer higher than detergent-free): 5 fold
  catalytic efficiency (kcat/Km) of detergent-free enzyme as % of enzyme purified without detergent removal: 4%
  kcat as % of kcat with 13α-HPOT: 38%

## CC/C=C\C/C=C\C=C\[C@H](CCCCCCCC(=O)O)OO [9α-HPOT, 9-S-hydroperoxy-10E,12Z,15Z-octadecatrienoic acid]
[1]; [10]
  Substrate specificity (% 13α-HPOT), from kcat/Km: 0.4%
  kcat/Km: 600000 M⁻¹ s⁻¹
  Km: 39.1 ± 7.2 µM
  kcat: 24 ± 2 s⁻¹
[1]; Detergent-free
  Substrate specificity (% 13α-HPOT), from kcat/Km: 3%
  kcat/Km: 100000 M⁻¹ s⁻¹
  Km: 81.6 ± 9.7 µM
  kcat: 8 ± 0 s⁻¹
[1]; [11]
  Substrate specificity (% 13α-HPOT), from kcat/Km: 0.4%
  kcat/Km: 600000 M⁻¹ s⁻¹
  Km: 51.7 ± 4.4 µM
  kcat: 30 ± 1 s⁻¹
[1]
  Km / affinity, fold change on detergent removal (Km higher): 2 fold
  kcat, fold difference (detergent-buffer higher than detergent-free): 3 fold
  catalytic efficiency (kcat/Km) of detergent-free enzyme as % of enzyme purified without detergent removal: 17%
  kcat as % of kcat with 13α-HPOT: 5%

## CCCCC[C@@H](/C=C/C=C\CCCCCCCC(=O)O)OO [13α-HPOD, 13-S-hydroperoxyoctadeca-9Z, 11 E-dienoic acid]
[1]; [10]
  Substrate specificity (% 13α-HPOT), from kcat/Km: 23% and 19%
  kcat/Km: 3.5e+07 M⁻¹ s⁻¹
  Km: 10.3 ± 2.1 µM
  kcat: 361 ± 19 s⁻¹
[1]; Detergent-free
  Substrate specificity (% 13α-HPOT), from kcat/Km: 19%
  kcat/Km: 600000 M⁻¹ s⁻¹
  Km: 102 ± 11.8 µM
  kcat: 59 ± 3 s⁻¹
[1]; [11]
  Substrate specificity (% 13α-HPOT), from kcat/Km: 22%
  kcat/Km: 3.35e+07 M⁻¹ s⁻¹
  Km: 14.7 ± 1.9 µM
  kcat: 493 ± 17 s⁻¹
[1]
  Km / affinity, fold change on detergent removal (Km higher): 10 fold
  kcat, fold difference (detergent-buffer higher than detergent-free): 6 fold
  catalytic efficiency (kcat/Km) of detergent-free enzyme as % of enzyme purified without detergent removal: 2%
  kcat as % of kcat with 13α-HPOT: 70%

## CC/C=C\C[C@@H](/C=C/C=C\CCCCCCCC(=O)O)OO [13α-HPOT, 13-S-hydroperoxy-9Z,11E,15Z-octadecatrienoic acid]
[1]; [10]
  Substrate specificity (% 13α-HPOT), from kcat/Km: 100%
  kcat/Km: 1.558e+08 M⁻¹ s⁻¹
  Km: 3.3 µM
  kcat: 514 ± 11 s⁻¹
[1]; Detergent-free
  Substrate specificity (% 13α-HPOT), from kcat/Km: 100%
  kcat/Km: 3.2e+06 M⁻¹ s⁻¹
  Km: 20.9 ± 1.7 µM
  kcat: 68 ± 5 s⁻¹
[1]; [11]
  Substrate specificity (% 13α-HPOT), from kcat/Km: 100%
  kcat/Km: 1.493e+08 M⁻¹ s⁻¹
  Km: 4.4 ± 0.6 µM
[1]
  Km / affinity, fold change on detergent removal (Km higher): 6 fold
  kcat, fold difference (detergent-buffer higher than detergent-free): approximately 8 fold
  catalytic efficiency (kcat/Km) of detergent-free enzyme as % of enzyme purified without detergent removal: 2%
[1]; in detergent micelles, CYP74C3 vs CYP74A1
  CYP74C3, fold faster than CYP74A1 (kcat/Km): 2.6 fold
[1]; micelle-bound vs detergent-free
  fold increase in kcat/Km upon micelle binding: ~50 fold
[1]; [12]
  Km of monomer-micelle complex, fold lower than detergent-free monomer: 5-6 fold
  kcat of monomer-micelle complex, fold higher than detergent-free monomer: 8-10 fold
[1]; with detergent
  kcat/Km: up to 1.6×10^8 M^−1. s^−1
[2]
  fold increase in kcat/Km upon micelle binding: ~50 fold
[3]
  fold increase in kcat/Km after reactivation with detergent micelles: ~50 fold

## [N-]=[N+]=[N-] [Azide, azide]
[4]
  binding of ligand to CYP74C3: shown to bind
[4]; pH 6.5
  Spin state of the haem iron after ligand or detergent binding: Mixture

## c1ccc2[nH]cnc2c1 [BI, benzimidazole]
[4]
  binding of ligand to CYP74C3: shown to bind

## [C-]#[O+] [CO, Carbon monoxide]
[4]; pH 6.5
  Spin state of the haem iron after ligand or detergent binding: Low

## c1c[nH]cn1 [Imidazole, imidazole]
[5]
  inhibition of AOS: potent inhibitor
[6]
  activity of CYP74C3 after elution from IMAC with the ligand: virtually inactive enzyme
[4]
  binding of ligand to CYP74C3: shown to bind
[4]; pH 6.5
  k1 of biphasic ligand binding: 2.5±0.1×10^−2 s^−1
  k2 of biphasic ligand binding: 0.33±0.03×10^−2 s^−1

## N#C[S-].[K+] [KCNS, potassium thiocyanate]
[4]
  binding of ligand to CYP74C3: shown to bind
[4]; pH 6.5
  Spin state of the haem iron after ligand or detergent binding: Mixture

## O=O [O2, dioxygen]
[4]
  binding of ligand to CYP74C3: shown to bind

## c1ccncc1 [Pyridine, pyridine]
[4]
  binding of ligand to CYP74C3: shown to bind
[4]; pH 6.5
  Spin state of the haem iron after ligand or detergent binding: Low

## c1cscn1 [Thiazole, thiazole]
[4]
  binding of ligand to CYP74C3: shown to bind

## polyoxyethylene 10 tridecyl ether [Emulphogene]
[7]
  Emulphogene concentration at which detergent-free CYP74C3 could be reactivated: exceeding 2.6 mM
  Kd: 6.9 µM
  reactivation of detergent-free CYP74C3: No reactivation
[4]; pH 6.5
  Spin state of the haem iron after ligand or detergent binding: Low
[8]
  Kd: 10.7 ± 1.7 µM

B1: CYP74A1: recombinant allene oxide synthase (AOS) from Arabidopsis thaliana (protein, UniProt Q96242 34-518, looked up)
Allene oxide synthase, …: SGSETPDLTVATRTGSKDLPIRNIPGNYGLPIVGPIKDRWDYFYDQGAEEFFKSRIRKYNSTVYRVNMPPGAFIAENPQVVALLDGKSFPVLFDVDKVEKKDLFTGTYMPSTELTGGYRILSYLDPSEPKHEKLKNLLFFLLKSSRNRIFPEFQATYSELFDSLEKELSLKGKADFGGSSDGTAFNFLARAFYGTNPADTKLKADAPGLITKWVLFNLHPLLSIGLPRVIEEPLIHTFSLPPALVKSDYQRLYEFFLESAGEILVEADKLGISREEATHNLLFATCFNTWGGMKILFPNMVKRIGRAGHQVHNRLAEEIRSVIKSNGGELTMGAIEKMELTKSVVYECLRFEPPVTAQYGRAKKDLVIESHDAAFKVKAGEMLYGYQPLATRDPKIFDRADEFVPERFVGEEGEKLLRHVLWSNGPETETPTVGNKQCAGKDFVVLVARLFVIEIFRRYDSFDIEVGTSPLGSSVNFSSLRKASF
[9]; Freeze Drying, +Emulphogene (0.3% w/v)
  Loss of active protein (%): 58.1%
[9]; Freeze Drying, +Triton X-100 (0.2% w/v)
  Loss of active protein (%): 41.3%
[9]; Freeze Drying, Detergent-free
  Loss of active protein (%): 2.3%
[9]; Speedvac Drying, +Emulphogene (0.3% w/v)
  Loss of active protein (%): 83.1%
[9]; Speedvac Drying, Detergent-free
  Loss of active protein (%): 17.6%
[3]
  fold increase in kcat/Km after reactivation with detergent micelles: 48 fold
